Test results: PubChem BioAssay (NCI)
Values joined by “and” are separate entries in the source; they are usually repeats but may differ in a detail not shown here. Equal values may be shown once.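 Briefly, cells in 96-well plates were exposed to five compound concentrations for 48 h, and endpoints were estimated by linear interpolation. GI50 = concentration required for 50% inhibition of growth. TGI: total growth inhibition.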

Tested on: MDA-MB-468 breast
Experiment: NCI anticancer screen, dose series, 48 h

Compound | GI50 | TGI
COc1ccc(/C=C2/CCOC2=O)cc1 | > 100 µM | > 100 µM
COc1cccc2c1[C@H](OC)[C@]13O[C@@]1(C2=O)[C@H](O)[C@H](C)[C@@](O)(C(=O)[C@@H]1O[C@H]1C)[C@@H]3O | 0.204 µM | 0.48 µM
CCCCCCCCOC(=O)c1cc(O)c(O)c(O)c1 | 3.49 µM | 16.7 µM
CCCCn1c(=O)c(/C=C/C(=O)/C=C/c2ccc(O)c(OC)c2)cc2ccc(Cl)cc21 | 1.46 µM | 4.37 µM
CCN(CC)CCNc1ccc(CO)c2sc3ccccc3c(=O)c12 | 1.25 µM | 3.03 µM
CCCCCCCCCCCCCCCC[N+](C)(C)C | 0.118 µM and 0.328 µM | 0.361 µM and 1.93 µM
CC(C)(C)c1ccc(NC(=O)c2cc(=O)c3ccccc3[nH]2)c(C(C)(C)C)c1O | 7.87 µM | 21.9 µM
CN1CCN(c2ccc3nc(-c4ccc5nc(-c6ccc(C(F)(F)F)cc6)[nH]c5c4)[nH]c3c2)CC1 | 1.85 µM | 3.65 µM
Cc1ccc2nc(NC(=O)CSC(=S)N3CCN(Cc4ccccc4)CC3)sc2c1 | > 100 µM | > 100 µM
O=c1cc(-c2ccccc2)oc2cc(OCc3cn(Cc4ccc(F)cc4)nn3)cc(O)c12 | 20 µM | > 100 µM
Cc1cc2cc(Oc3ccnc(Nc4cccc(CS(=O)(=O)NCCN(C)C)c4)n3)ccc2[nH]1 | 6.49 µM | 21.3 µM
COc1ccccc1NC(=O)N/C(N)=N/c1nc2ccccc2s1 | 0.299 µM | > 100 µM
Cc1cc(C)c(S(=O)(=O)Oc2ccccc2[N+](=O)[O-])c(C)c1 | 1.48 µM | 5.62 µM
C=C(C)[C@@H]1CC[C@]2(c3ncc(C)o3)CC[C@]3(C)[C@H](CC[C@@H]4[C@@](C)(CCC#N)[C@H](C(=C)C)CC[C@]43C)[C@@H]12 | 3 µM | 12.9 µM
CC(C)NCCCNC1=C(Cl)C(=O)c2ccccc2C1=O | 2.85 µM | 8.78 µM
COc1ccc(OC)c(-c2cn3nc(-c4c[nH]c5ccc(Br)cc45)sc3n2)c1 | 2.94 µM | 8.41 µM
N#C/C(=C/c1cccs1)c1cccs1 | 24.1 µM | > 100 µM
CC(=O)O[C@H]1CC[C@]2(C)[C@H]3C(=O)C=C4[C@@H]5C[C@](C)(C(=O)N6CCCNCC6)CC[C@]5(C)CC[C@@]4(C)[C@]3(C)CC[C@H]2C1(C)C | 1.7 µM | 3.56 µM
C=C(C)[C@@H]1CC[C@]2(C)[C@H](CC=C3[C@@H]4CC(C)(C)CC[C@]4(C(=O)OC)CC[C@]32C)[C@@]1(C)CC/C(N)=N/O | 1.85 µM | 5.06 µM
CC(=O)OC1CC(C)c2c1ncnc2N1CCN(C(=O)OC(C)(C)C)CC1 (stereo unspecified) | 33.9 µM | > 100 µM
COc1cc(C)c(N(C)C(=O)CN(C)C)cc1Nc1nc(Nc2cccc(F)c2C(N)=O)c2cc[nH]c2n1 | 14.5 µM | > 25 µM
CCCN(CCC)c1ccc(C=O)c(OC)c1 | 6.22 µM | 63 µM
COc1cc2c(C#N)n3c(c2cc1OC)C(=O)C(c1ccccc1)Oc1ccccc1-3 (stereo unspecified) | 4.68 µM | > 100 µM
CCN(CCc1ccc(F)cc1)c1ccc(CO)c(Cl)c1 | 0.217 µM | 0.724 µM
COc1ccc(S(=O)(=O)N2CCCCC2)cc1NC(=O)c1[nH]c(C)c2c1CCCCC2=O | 0.468 µM | 3.9 µM
COc1ccc(CNCCCN2C(=O)c3ccc4c5c(ccc(c35)C2=O)C(=O)N(CCCNCCCCNCCCN)C4=O)c(OC)c1OC | 0.155 µM | 0.334 µM
CCCCCn1ncc(-c2c(O)c(O)cc3c(O)c(-c4c(C)cc5c(-c6cnn(CCCCC)n6)c(O)c(O)cc5c4O)c(C)cc23)n1 | 0.102 µM | 3.76 µM
COc1ncnc2c1ncn2C/C(Br)=C(\Br)CCl | 1.56 µM | 3.29 µM
